Data from ChEMBL document CHEMBL1149406, “Isolation and cholinesterase-inhibition studies of sterols from Haloxylon recurvum” (Bioorg Med Chem Lett, 2006).

Legend:
Butyrylcholinesterase = Butyrylcholinesterase (Equus caballus, UniProt Q9N1N9); assay: Inhibitory activity against BuChE from horse serum
Acetylcholinesterase = Acetylcholinesterase (Electrophorus electricus, UniProt O42275); assay: Inhibitory activity against AChE from electric eel
Chain of Acetylcholinesterase (O42275 whole entry): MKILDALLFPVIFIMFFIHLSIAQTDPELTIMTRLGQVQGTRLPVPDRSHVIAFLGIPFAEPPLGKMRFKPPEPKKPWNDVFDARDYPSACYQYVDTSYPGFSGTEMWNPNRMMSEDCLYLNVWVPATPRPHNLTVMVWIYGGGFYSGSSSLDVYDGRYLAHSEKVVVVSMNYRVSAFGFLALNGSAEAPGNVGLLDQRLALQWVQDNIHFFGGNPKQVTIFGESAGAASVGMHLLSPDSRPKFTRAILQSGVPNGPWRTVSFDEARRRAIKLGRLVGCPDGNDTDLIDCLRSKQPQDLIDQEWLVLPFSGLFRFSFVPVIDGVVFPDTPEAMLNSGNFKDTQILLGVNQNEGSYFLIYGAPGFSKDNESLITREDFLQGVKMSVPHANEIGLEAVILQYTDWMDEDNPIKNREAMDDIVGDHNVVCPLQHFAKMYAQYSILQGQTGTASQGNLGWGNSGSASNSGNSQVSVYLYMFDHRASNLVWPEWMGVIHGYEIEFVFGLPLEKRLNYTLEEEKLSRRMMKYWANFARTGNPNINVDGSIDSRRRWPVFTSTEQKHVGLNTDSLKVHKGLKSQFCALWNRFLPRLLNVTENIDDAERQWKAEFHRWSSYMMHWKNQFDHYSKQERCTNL

Chain of Butyrylcholinesterase (Q9N1N9 whole entry): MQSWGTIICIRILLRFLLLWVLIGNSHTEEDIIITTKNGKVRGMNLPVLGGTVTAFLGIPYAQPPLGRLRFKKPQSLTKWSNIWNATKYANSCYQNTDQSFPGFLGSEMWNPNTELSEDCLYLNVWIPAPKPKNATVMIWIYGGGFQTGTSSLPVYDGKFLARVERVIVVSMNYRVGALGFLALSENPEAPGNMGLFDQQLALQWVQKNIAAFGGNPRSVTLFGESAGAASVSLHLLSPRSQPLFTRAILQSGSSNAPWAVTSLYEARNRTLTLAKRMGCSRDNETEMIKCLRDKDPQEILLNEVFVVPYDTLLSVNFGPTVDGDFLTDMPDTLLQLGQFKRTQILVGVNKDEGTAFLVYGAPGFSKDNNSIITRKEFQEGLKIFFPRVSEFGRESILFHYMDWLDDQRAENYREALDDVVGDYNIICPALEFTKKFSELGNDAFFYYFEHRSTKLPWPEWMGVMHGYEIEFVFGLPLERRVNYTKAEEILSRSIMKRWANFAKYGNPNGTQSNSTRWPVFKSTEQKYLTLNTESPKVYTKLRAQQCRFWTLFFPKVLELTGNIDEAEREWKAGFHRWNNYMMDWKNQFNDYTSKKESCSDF

Row | SMILES | Ki (Butyrylcholinesterase) [µM] | Ki (Acetylcholinesterase) [µM] | IC50 (Butyrylcholinesterase) [µM] | IC50 (Acetylcholinesterase) [µM]
1 | CCC(CC[C@@H](C)[C@H]1CC[C@H]2[C@@H]3C=CC4(O)C[C@@H](O)CC[C@]4(C)[C@H]3CC[C@]12C)C(C)C (some centres undefined) | 4.2 | 4 |  | 
2 | CCC(CC[C@@H](C)[C@H]1CC[C@H]2C3=CC(O)C4(O)C[C@@H](O)CC[C@]4(C)[C@H]3CC[C@]12C)C(C)C (some centres undefined) | 2.5 | 12.6 | 2 | 13.7
3 | CC[C@H](/C=C/[C@@H](C)[C@H]1CC[C@H]2[C@@H]3C=CC4C[C@@H](O)CC[C@]4(C)C3=CC[C@]12C)C(C)C (some centres undefined) | 4.6 | 20.6 | 4.5 | 19.2
4 | CC[C@H](/C=C/[C@@H](C)[C@H]1CC[C@@H]2[C@]1(C)CC=C1[C@]23C=C[C@]2(C[C@@H](O)CC[C@]12C)OO3)C(C)C | 5 | 25.5 | 6.9 | 26.4
5 | CC[C@H](C[C@@H](O)[C@@H](C)[C@H]1CC[C@H]2[C@@H]3C[C@@H](O)[C@@]4(O)C[C@@H](O)C[C@H](O)[C@]4(C)[C@H]3CC[C@]12C)C(C)C | 2.2 | 17 | 2.5 | 17.2
6 | CC[C@H](C[C@@H](O)[C@@H](C)[C@H]1CCC2C3CC=C4C[C@@H](O)C[C@H](O)[C@]4(C)C3CC[C@@]21C)C(C)C (some centres undefined) [HALOXYSTEROL A] | 4.5 | 7.6 | 4.7 | 8.3
7 | CC[C@H](C[C@@H](O)[C@@H](C)[C@H]1CCC2C3C=CC4=C[C@@H](O)C[C@H](O)[C@]4(C)C3CC[C@@]21C)C(C)C (some centres undefined) [HALOXYSTEROL B] | 2.5 | 0.85 | 2.3 | 0.89
8 | CC[C@H](C[C@@H](O)[C@@H](C)[C@H]1CCC2C3CCC4=CC(=O)CC[C@]4(C)C3=CC[C@@]21C)C(C)C (some centres undefined) [HALOXYSTEROL C] | 18 | 1.1 | 17.8 | 1
9 | CC[C@H](CC[C@@H](C)[C@H]1CC[C@H]2[C@@H]3CCC4=C[C@@H](O)CC[C@]4(C)[C@H]3CC[C@]12C)C(C)C [LAWSARITOL] | 3.7 | 16.1 | 3.9 | 15.2
